Reference: US12594268B2, “Methods of treating Fabry disease in patients having a mutation in the GLA gene” (Amicus Therapeutics, Inc., priority 2018, dated 2026)
Changes are numbered by the printed parent chain.

What was measured:
Format in all cases: cell-based
[1] = molecular target: T1, α-Gal A mutant form T412P (Homo sapiens, UniProt P06280, T412P); test: α-Gal A activity in lysates of transfected HEK-293 cells, T412P
T1 construct: expressed in transfected cells; host or cells: HEK-293
T1 sequence (P06280 32-429 T412P): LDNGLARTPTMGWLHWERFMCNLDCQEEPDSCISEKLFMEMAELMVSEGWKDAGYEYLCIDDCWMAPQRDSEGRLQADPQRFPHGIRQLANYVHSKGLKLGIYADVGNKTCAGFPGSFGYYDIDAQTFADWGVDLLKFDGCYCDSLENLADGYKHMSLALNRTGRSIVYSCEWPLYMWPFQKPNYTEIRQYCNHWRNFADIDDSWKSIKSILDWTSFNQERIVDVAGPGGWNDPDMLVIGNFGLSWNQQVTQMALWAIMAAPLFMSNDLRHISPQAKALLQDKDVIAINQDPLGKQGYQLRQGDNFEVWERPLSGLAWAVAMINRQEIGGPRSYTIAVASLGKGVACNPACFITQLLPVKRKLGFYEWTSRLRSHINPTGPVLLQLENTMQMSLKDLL
Description: (§1) Baseline and 10 μM migalastat α-Gal A activity: Differences in the α-Gal A activity between lysates incubated in the absence and presence of 10 μM migalastat were determined using a one-tailed, Mann Whitney U test; an increase at 10 μM migalastat with a p<0.05 was considered significant.
(§2) 10 μM migalastat α-Gal A activity (% WT)=(α-Gal A activity in mutant transfected cell lysates incubated with 10 μM migalastat÷α-Gal A activity in wild-type transfected cell lysates without migalastat)*100.
(§3) Absolute increase (% WT)=is the 10 μM migalastat α-Gal A activity (% WT) minus the baseline α-Gal A activity (% WT).
(§4) Relative increase is the 10 μM migalastat α-Gal A activity in mutant transfected cell lysates÷baseline α-Gal A activity in mutant transfected cell lysates incubated without migalastat.

[2] = molecular target: T2, α-Gal A mutant form I239M (Homo sapiens, UniProt P06280, I239M); test: α-Gal A activity in lysates of transfected HEK-293 cells, I239M
T2 construct: expressed in transfected cells; host or cells: HEK-293
T2 sequence (P06280 32-429 I239M): T1 sequence (P06280 32-429 T412P) with I208M, P381T
Description: as §1, §2, §3, §4

[3] = molecular target: T3, α-Gal A mutant form S62delinsLA (Homo sapiens, UniProt P06280, INS61L/S62A); test: α-Gal A activity in lysates of transfected HEK-293 cells, S62delinsLA
T3 construct: expressed in transfected cells; host or cells: HEK-293
T3 sequence (P06280 with tags, fused parts or gaps INS61L/S62A): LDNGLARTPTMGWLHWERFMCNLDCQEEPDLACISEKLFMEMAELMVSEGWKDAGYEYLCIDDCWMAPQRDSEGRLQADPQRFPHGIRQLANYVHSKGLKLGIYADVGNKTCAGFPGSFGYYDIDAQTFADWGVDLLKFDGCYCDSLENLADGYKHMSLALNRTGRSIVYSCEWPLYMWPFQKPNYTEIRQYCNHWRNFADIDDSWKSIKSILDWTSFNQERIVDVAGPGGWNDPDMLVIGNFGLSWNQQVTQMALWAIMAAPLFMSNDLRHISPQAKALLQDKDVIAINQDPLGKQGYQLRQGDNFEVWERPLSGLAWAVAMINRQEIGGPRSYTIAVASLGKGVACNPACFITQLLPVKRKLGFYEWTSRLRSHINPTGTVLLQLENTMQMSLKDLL
Description: as §1, §2, §3, §4

α-Gal A mutant form Q57R = molecular target: T4, α-Gal A mutant form Q57R (Homo sapiens, UniProt P06280, Q57R); test: α-Gal A activity in lysates of transfected HEK-293 cells, Q57R
T4 construct: expressed in transfected cells; host or cells: HEK-293
T4 sequence (P06280 32-429 Q57R): T1 sequence (P06280 32-429 T412P) with Q26R, P381T
Description: as §1, §2, §3, §4

[4] = molecular target: T5, α-Gal A mutant form Q330P (Homo sapiens, UniProt P06280, Q330P); test: α-Gal A activity in lysates of transfected HEK-293 cells, Q330P
T5 construct: expressed in transfected cells; host or cells: HEK-293
T5 sequence (P06280 32-429 Q330P): T1 sequence (P06280 32-429 T412P) with Q299P, P381T
Description: as §1, §2, §3, §4

[5] = 10 μM migalastat minus baseline
[6] = 10 μM migalastat ÷ baseline activity
[7] = HEK-293 lysates, 10 μM migalastat, 5 days, mean ± SEM

- Absolute increase (% WT) [1, 5]: 16.9 % WT
- Relative increase [1, 6]: 11.21
- 10 μM migalastat α-Gal A activity [1, 7]: 7159 ± 459 nmol/mg/h
- 10 μM migalastat α-Gal A activity (% WT) [1, 7]: 18.6 ± 1.2 % WT
- Absolute increase (% WT) [2, 5]: 55.5 % WT
- Relative increase [2, 6]: 5.12
- 10 μM migalastat α-Gal A activity [2, 7]: 24827 ± 3056 nmol/mg/h
- 10 μM migalastat α-Gal A activity (% WT) [2, 7]: 69.3 ± 6.9 % WT
- Absolute increase (% WT) [3, 5]: 20.9 % WT
- Relative increase [3, 6]: 50.92
- 10 μM migalastat α-Gal A activity [3, 7]: 8115 ± 810 nmol/mg/h
- 10 μM migalastat α-Gal A activity (% WT) [3, 7]: 21.3 ± 1.7 % WT
- Absolute increase (% WT) (α-Gal A mutant form Q57R; [5]): 24.0 % WT
- Relative increase (α-Gal A mutant form Q57R; [6]): 1.30
- 10 μM migalastat α-Gal A activity (α-Gal A mutant form Q57R; [7]): 26357 ± 916 nmol/mg/h
- 10 μM migalastat α-Gal A activity (% WT) (α-Gal A mutant form Q57R; [7]): 105.0 ± 3.0 % WT
- Absolute increase (% WT) [4, 5]: 24.4 % WT
- Relative increase [4, 6]: 2.21
- 10 μM migalastat α-Gal A activity [4, 7]: 12375 ± 664 nmol/mg/h
- 10 μM migalastat α-Gal A activity (% WT) [4, 7]: 45.8 ± 1.9 % WT
Compound: OC[C@H]1NC[C@H](O)[C@@H](O)[C@H]1O [migalastat, (2R,3S,4R,5S)-2-(hydroxymethyl) piperdine-3,4,5-triol]
